Source: US7414047B2, “Piperazinyl and diazapanyl benzamides and benzthioamides” (Janssen Pharmaceutica N.V., priority 2002, dated 2008)
Structures can show the parent of a compound that is named as a salt.

Target: T1, human histamine H3 receptor (Homo sapiens, UniProt Q9Y5N1)
T1 construct: One microgram of supercoiled H3 receptor cDNA was added to the cells and mixed; expressed in transfected cells; membranes prepared from cell pellets
Assay: {3H}-N-methylhistamine binding
Experimental: Transfection of Cells with Human Histamine Receptor
A 10 cm tissue culture dish with a confluent monolayer of SK-N-MC cells was split two days prior to transfection. Using sterile technique the media was removed and the cells were detached from the dish by the addition of trypsin. One fifth of the cells were then placed onto a new 10 cm dish. Cells were grown in a 37° C. incubator with 5% CO2 in Minimal Essential Media Eagle with 10%. Fetal Bovine Serum. After two days cells were approximately 80% confluent. These were removed from the dish with trypsin and pelleted in a clinical centrifuge. The pellet was then re-suspended in 400 μL complete media and transferred to an electroporation cuvette with a 0.4 cm gap between the electrodes. One microgram of supercoiled H3 receptor cDNA was added to the cells and mixed. The voltage for the electroporation was set at 0.25 kV, the capacitance was set at 960 μF. After electroporation the cells were diluted into 10 mL complete media and plated onto four 10 cm dishes. Because of the variability in the efficiency of electroporation, four different concentrations of cells were plated. The ratios used were; 1:20, 1:10, 1:5, with the remainder of the cells being added to the fourth dish. […] After 10 days dishes were analyzed for surviving colonies of cells. Dishes with well-isolated colonies were used. Cells from individual colonies were isolated and tested. SK-N-MC cells were used because they give efficient coupling for inhibition of adenylate cyclase. The clones that gave the most robust inhibition of adenylate cyclase in response to histamine were used for further study.
{^3H}-N-methylhistamine Binding
Cell pellets from histamine H3 receptor-expressing SK-N-MC cells were homogenized in 20 mM TrisHCl/0.5 mM EDTA. Supernatants from an 800 g spin were collected, recentrifuged at 30,000 g for 30 min. Pellets were re-homogenized in 50 mM Tris/5 mM EDTA (pH 7.4). […] Filters were dried, added to 4 mL scintillation cocktail and then counted on a liquid scintillation counter. Non-specific binding was defined with 10 μM histamine.

T1 sequence (Q9Y5N1 whole entry): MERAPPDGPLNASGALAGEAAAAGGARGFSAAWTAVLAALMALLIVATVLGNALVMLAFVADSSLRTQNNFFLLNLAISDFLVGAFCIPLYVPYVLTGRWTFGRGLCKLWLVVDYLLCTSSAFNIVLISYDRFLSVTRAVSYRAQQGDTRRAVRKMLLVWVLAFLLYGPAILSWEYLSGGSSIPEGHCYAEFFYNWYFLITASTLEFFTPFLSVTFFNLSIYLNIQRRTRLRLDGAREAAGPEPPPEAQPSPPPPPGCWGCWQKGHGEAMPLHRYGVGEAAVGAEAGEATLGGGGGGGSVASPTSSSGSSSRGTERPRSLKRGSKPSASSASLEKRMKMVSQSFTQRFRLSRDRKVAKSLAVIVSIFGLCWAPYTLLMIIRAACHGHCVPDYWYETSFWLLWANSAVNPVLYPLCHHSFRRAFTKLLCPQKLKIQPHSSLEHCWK

SMILES	Ki
CC(C)N1CCN(C(=O)c2ccc(CNCc3ccccc3)cc2)CC1 [Example 58, {4-(Benzylamino-methyl)-phenyl}-(4-isopropyl-piperazin-1-yl)-methanone dihydrochloride]	3 nM
CC(C)N1CCN(C(=O)c2ccc(CNc3ccccc3)cc2)CC1 [Example 59, (4-Isopropyl-piperazin-1-yl)-(4-phenylaminomethyl-phenyl)-methanone dihydrochloride]	23 nM
CC(C)N1CCN(C(=O)c2ccc(CN3CCCCCC3)cc2)CC1 [Example 60, (4-Azepan-1-ylmethyl-phenyl)-(4-isopropyl-piperazin-1-yl)-methanone dihydrochloride]	1 nM
CC(C)N1CCN(C(=O)c2ccc(CN3CCCC3)cc2)CC1 [Example 61, (4-Isopropyl-piperazin-1-yl)-(4-pyrrolidin-1-ylmethyl-phenyl)-methanone dihydrochloride]	1 nM
CC(C)N1CCN(C(=O)c2ccc(CN(C)C)cc2)CC1 [Example 62, (4-Dimethylaminomethyl-phenyl)-(4-isopropyl-piperazin-1-yl)-methanone dihydrochloride]	5 nM
O=C(c1ccc(CN2CCCCC2)cc1)N1CCN(C2CCCCC2)CC1 [Example 66, (4-Cyclohexyl-piperazin-1-yl)-(4-piperidin-1-ylmethyl-phenyl)-methanone]	1 nM
CC(C)N1CCN(C(=O)c2ccc(CN3CCSCC3)cc2)CC1 [Example 67, (4-Isopropyl-piperazin-1-yl)-(4-thiomorpholin-4-ylmethyl-phenyl)-methanone]	2 nM
CCCN(CCOC)Cc1ccc(C(=O)N2CCN(C(C)C)CC2)cc1 [Example 68, (4-Isopropyl-piperazin-1-yl)-(4-{[(2-methoxy-ethyl)-propyl-amino]-methyl}-phenyl)-methanone]	2 nM
CCN(CCOC)Cc1ccc(C(=O)N2CCN(C(C)C)CC2)cc1 [Example 69, (4-{[Ethyl-(2-methoxy-ethyl)-amino]-methyl}-phenyl)-(4-isopropyl-piperazin-1-yl)-methanone]	3 nM
COCCNCc1ccc(C(=O)N2CCN(C(C)C)CC2)cc1 [Example 70, (4-Isopropyl-piperazin-1-yl)-{4-[(2-methoxy-ethylamino)-methyl]-phenyl}-methanone]	2 nM
CC(C)N1CCN(C(=O)c2ccc(CNc3ccccn3)cc2)CC1 [Example 71, (4-Isopropyl-piperazin-1-yl)-[4-(pyridin-2-ylaminomethyl)-phenyl]-methanone]	4 nM
COCC(C)NCc1ccc(C(=O)N2CCN(C(C)C)CC2)cc1 (stereo not drawn) [Example 72, (4-Isopropyl-piperazin-1-yl)-{4-[(2-methoxy-1-methyl-ethylamino)-methyl]-phenyl}-methanone]	3 nM
